According to US20170159101A1, “DRUG-RESISTANT P97 ATPASE MUTATIONS” (Cleave Biosciences, Inc., priority 2014, published 2017):

How the values were obtained:
Assay in all cases: Biochemical ATPase assay, mutant p97 vs WT
p97 E470D = target: T1, p97 E470D (Homo sapiens, UniProt P55072, E470D); settings: recombinant p97 with E470D mutation
T1 construct: His-tag; made in house; host or cells: E. coli B121[DE3]; (so in the source)
Description: (§1) Proteins were expressed in the B121[DE3] strain of E. coli and purified using His-tag mediated nickel purification and gel filtration chromatography.
(§2) ATPase activity of p97 was measured using an ATP regenerating enzymatic system that couples the conversion of phosphoenolpyruvate (PEP) to pyruvate by pyruvate kinase with ADP conversion to ATP. Pyruvate is then converted to lactate by lactate dehydrogenase, which is coupled to the conversion of NADH to NAD^+. The loss of NADH is measured by a decrease in optical absorbance as […] allowing for real-time measurement of ATPase activity. Dose titrations of a test compound were added to the p97 ATPase assay and ATPase activity was monitored. The rate of ATPase activity was fit to four-parameter sigmoidal curve to calculate IC50 of test compound. IC50 values of test compounds for wild type p97 were compared to IC50 values of mutant proteins to identify fold-changes in the potency of test compounds for mutant p97.

p97 G481A = target: T2, p97 G481A (Homo sapiens, UniProt P55072, G481A); settings: recombinant p97 with G481A mutation
T2 construct: His-tag; made in house; host or cells: E. coli B121[DE3]; (so in the source)
T2 sequence (P55072 whole entry G481A): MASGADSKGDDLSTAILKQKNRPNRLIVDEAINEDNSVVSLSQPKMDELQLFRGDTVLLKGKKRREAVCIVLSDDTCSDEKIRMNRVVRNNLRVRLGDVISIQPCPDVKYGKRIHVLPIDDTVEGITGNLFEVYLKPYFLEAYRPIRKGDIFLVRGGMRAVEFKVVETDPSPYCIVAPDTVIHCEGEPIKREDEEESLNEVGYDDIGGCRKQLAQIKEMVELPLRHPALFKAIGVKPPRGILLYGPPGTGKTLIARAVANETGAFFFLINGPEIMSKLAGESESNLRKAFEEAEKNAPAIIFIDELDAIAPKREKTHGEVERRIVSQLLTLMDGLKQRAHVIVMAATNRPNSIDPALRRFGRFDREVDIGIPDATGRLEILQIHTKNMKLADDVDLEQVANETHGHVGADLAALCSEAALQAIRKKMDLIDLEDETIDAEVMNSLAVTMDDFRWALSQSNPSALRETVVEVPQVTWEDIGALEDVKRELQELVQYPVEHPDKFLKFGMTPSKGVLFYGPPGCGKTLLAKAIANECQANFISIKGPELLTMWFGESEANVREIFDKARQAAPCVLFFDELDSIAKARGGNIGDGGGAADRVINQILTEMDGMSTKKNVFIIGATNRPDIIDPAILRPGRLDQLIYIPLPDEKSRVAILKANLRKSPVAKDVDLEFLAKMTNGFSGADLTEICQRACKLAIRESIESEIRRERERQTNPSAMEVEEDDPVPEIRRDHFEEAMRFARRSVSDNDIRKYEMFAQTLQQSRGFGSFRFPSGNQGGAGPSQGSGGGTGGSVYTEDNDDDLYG
Description: as §1, §2

p97 Q473P = target: T3, p97 Q473P (Homo sapiens, UniProt P55072, Q473P); settings: recombinant p97 with Q473P mutation
T3 construct: His-tag; made in house; host or cells: E. coli B121[DE3]; (so in the source)
T3 sequence (P55072 whole entry Q473P): as the sequence (P55072 whole entry G481A) above, with Q473P, A481G counted along it
Description: as §1, §2

p97 A659T = target: T4, p97 A659T (Homo sapiens, UniProt P55072, A659T); settings: recombinant p97 with A659T mutation
T4 construct: His-tag; made in house; host or cells: E. coli B121[DE3]; (so in the source)
T4 sequence (P55072 whole entry A659T): as the sequence (P55072 whole entry G481A) above, with A481G, A659T counted along it
Description: as §1, §2

p97 D649A = target: T5, p97 D649A (Homo sapiens, UniProt P55072, D649A); settings: recombinant p97 with D649A mutation
T5 construct: His-tag; made in house; host or cells: E. coli B121[DE3]; (so in the source)
T5 sequence (P55072 whole entry D649A): as the sequence (P55072 whole entry G481A) above, with A481G, D649A counted along it
Description: as §1, §2

p97 T688A = target: T6, p97 T688A (Homo sapiens, UniProt P55072, T688A); settings: recombinant p97 with T688A mutation
T6 construct: His-tag; made in house; host or cells: E. coli B121[DE3]; (so in the source)
T6 sequence (P55072 whole entry T688A): as the sequence (P55072 whole entry G481A) above, with A481G, T688A counted along it
Description: as §1, §2

T1 sequence (P55072 whole entry E470D): as the sequence (P55072 whole entry G481A) above, with E470D, A481G counted along it

COc1nc2c(C(N)=O)cccc2n1-c1nc2c(c(NCc3ccccc3)n1)CCCC2 [Compound 5, 1-[4-(benzylamino)-5,6,7,8-tetrahydroquinazolin-2-yl]-2-methoxy-1H-1,3-benzodiazole-4-carboxamide]
Fold Change in IC50 compared to WT Protein (p97 E470D): 15.4 fold
Fold Change in IC50 compared to WT Protein (p97 G481A): 4.1 fold
Fold Change in IC50 compared to WT Protein (p97 Q473P): 0.3 fold
Fold Change in IC50 compared to WT Protein (p97 A659T): 110.0 fold
Fold Change in IC50 compared to WT Protein (p97 D649A): 67.0 fold
Fold Change in IC50 compared to WT Protein (p97 T688A): 363.0 fold
